Like-named read-outs stand apart in the source and are kept apart here.
Assays:
[1] = Cannabis/SNAC oral rat pharmacokinetic (PK) study; type: in vivo, rats; conditions: for AUC(0-t) / Tmax: rat, plasma, po; for AUC(0-t): read-out: AUC0-Tlast; for Tmax: read-out: time to reach the mean maximum plasma concentration (Tmax); for AUC0-Tlast versus the cannabis alone group: rats, oral, same cannabis extract dose in the presence of SNAC (250 mg/kg or 500 mg/kg)
Description: Example 4. Summary of cannabis/SNAC oral rat pharmacokinetic (PK) study.
Methods. Animals were dosed on Day 1 and a series of blood samples were collected over a period of 4 hours post dose for pharmacokinetic evaluation. Animals were euthanized following collection of their last blood sample.

study participants [2] = test: Onset and duration of action of orally administered cannabis/SNAC composition at a low SNAC dose (100 mg); type: in vivo, human; conditions: 100 mg SNAC with cannabis concentrate, oral
Description: Example 2. […] This study was designed to assess the utility of SNAC in enabling a rapid-acting oral form of cannabis at a low dose.
Selection of Participants. Three study participants were recruited to ingest cannabis compositions and record the onset, duration, and intensity of cannabis-induced euphoria and/or dysphoria.
(§1) Formulations. The selected cannabis concentrate is commercially available and was provided to participants in an ethanol solution. The concentrate contains 8 mg THC per dose. It was selected because it contains a high percentage of THC, which provides a noticeable effect on user- reported “euphoria”.
(§2) Methods. For the Control experiment, each participant mixed the cannabis concentrate with 15 ml (one tablespoon) of aqueous ethanol, and immediately swallowed the mixture.
(§3) For both the Control experiment and the Test experiment, each participant recorded the time of dose administration, the time of onset of euphoria and/or dysphoria, and the observed level of euphoria and/or dysphoria in fifteen minute intervals for five hours following administration of the cannabis dose. Euphoria and dysphoria were reported using a scale value, in a range from 1-10.
Results. The results are combined with the data from Example 1 and are reported for all participants in FIG. 8.

study participants [3] = test: Onset and duration of action of orally administered cannabis/SNAC composition (200 mg SNAC), participant-reported euphoria/dysphoria; type: in vivo, human; conditions: 200 mg SNAC with cannabis concentrate, oral
Description: This study was designed to assess the utility of SNAC in enabling a rapid-acting oral form of cannabis.
Selection of Participants. Six study participants were recruited to ingest cannabis compositions and record the onset, duration, and intensity of cannabis-induced euphoria and/or dysphoria.
as §1, §2, §3

SMILES	AUC(0-t) [1]	Tmax [1]	AUC0-Tlast versus the cannabis alone group [1]	effect of the absorption enhancer on the duration of action of cannabis (study participants [2])	effect of the absorption enhancer on the duration of action of cannabis (study participants [3])	Tmax ([1]; 25 mg/kg)	Tmax ([1]; 50 mg/kg)
C=C(C)[C@@H]1CCC(C)=C[C@H]1c1c(O)cc(CCCCC)cc1O [CBD, cannabidiol]	13.2 to 382 ng·h/mL	0.25 to 1 h	comparable				
O=C([O-])CCCCCCCNC(=O)c1ccccc1O.[Na+] [SNAC, sodium N-[8-(2-hydroxybenzoyl)amino] caprylate]				no effect	no effect		
CCCCCc1cc(O)c2c(c1)OC(C)(C)[C@@H]1CCC(C)=C[C@@H]21 [THC, delta-9-tetrahydrocannabinol]	171 to 1260 ng·h/mL		comparable			1 h	2 h
